Experimental findings from ChEMBL document CHEMBL1201862, “PubChem BioAssay data set” (2004) are described below.

Assay [1] concerns the target Neuropeptide Y receptor type 1 (Homo sapiens, UniProt P25929). In kind it is functional.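 Further: HEK293 cells with a CNG channel challenged with NPY then isoproterenol; potency as antagonist that reverses NPY suppression of cAMP signal.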
Assay [2] concerns the target Neuropeptide Y receptor type 2 (Homo sapiens, UniProt P49146). It counts as functional, cell-based.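 Further: HEK293 cells expressing the receptor and a CNG channel; stimulus was NPY near EC95 followed by isoproterenol to raise cAMP; antagonist potency measured as restoring cAMP signal that NPY suppresses.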
Another assay concerns the target T1, Protein skinhead-1 (Caenorhabditis elegans, UniProt P34707).
T1 sequence (P34707 whole entry): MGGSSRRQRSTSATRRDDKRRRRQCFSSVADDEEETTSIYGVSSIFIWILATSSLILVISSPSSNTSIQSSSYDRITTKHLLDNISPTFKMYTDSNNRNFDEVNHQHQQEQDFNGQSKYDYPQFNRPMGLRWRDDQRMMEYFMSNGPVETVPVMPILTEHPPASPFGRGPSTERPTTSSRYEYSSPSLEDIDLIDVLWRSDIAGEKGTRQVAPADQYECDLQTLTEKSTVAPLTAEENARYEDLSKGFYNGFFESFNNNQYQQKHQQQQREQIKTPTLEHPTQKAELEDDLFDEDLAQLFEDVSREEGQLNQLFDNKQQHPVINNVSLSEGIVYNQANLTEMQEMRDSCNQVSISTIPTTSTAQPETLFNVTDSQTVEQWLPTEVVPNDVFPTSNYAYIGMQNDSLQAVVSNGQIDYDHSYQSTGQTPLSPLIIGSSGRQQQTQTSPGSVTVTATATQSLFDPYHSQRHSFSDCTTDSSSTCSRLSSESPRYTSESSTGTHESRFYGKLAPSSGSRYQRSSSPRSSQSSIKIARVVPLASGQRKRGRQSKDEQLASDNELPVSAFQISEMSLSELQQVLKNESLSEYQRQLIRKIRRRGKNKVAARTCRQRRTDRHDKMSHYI
In kind it is functional.

The target of assay [3] is Lysosomal acid glucosylceramidase (Homo sapiens, UniProt P04062). The assay can be described thus: Dose response cell-based high throughput screening assay to identify enhancers of beta-glucosidase activity. [Related pubchem assays: 784 ]. In kind it is functional.
Assay [4] can be described thus: NIH-3T3 fibroblast cytotoxicity, dose response, cytotoxicity control, cell-based, fluorescence, Alamar Blue, secondary assay (AID 2327).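 Further: NIH-3T3 mouse fibroblasts cultured with fluconazole at 8 µg/mL.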 It counts as functional. A general note: The colour change of resazurin is a common sign of viable cells or microbes.
The target of assay [5] is Eukaryotic translation initiation factor 4H (Homo sapiens, UniProt Q15056). The assay can be described thus: eIF4H binding inhibition – biochemical, uHTS, fluorescence polarization, translation initiation inhibitor project, primary screen (AID 2012). (In general: Polarisation of emitted light reports the rotation of a fluorescent probe.)
Assay [6] is described as follows: fluconazole-exposed Candida albicans growth modulators – fluorescence, retest, confirmation (AID 2467). It counts as functional, cell-based.
The target in assay [7] is Luciferin 4-monooxygenase (Photinus pyralis, UniProt P08659). The assay can be described thus: inhibition of purified Photinus pyralis luciferase – biochemical, luminescence, dose response (AID 1891).
Assay [8] is described as follows: Luminescence Cell-Based Dose Confirmation HTS to Identify Inhibitors of Platelet Dense Granule Release. [Related pubchem assays: 1663 (Primary HTS), 1678 (Summary of Project)]. In kind it is functional.
The target of assay [9] is T2, Mannose-6-phosphate isomerase (Homo sapiens, UniProt P34949).
T2 sequence (P34949 whole entry): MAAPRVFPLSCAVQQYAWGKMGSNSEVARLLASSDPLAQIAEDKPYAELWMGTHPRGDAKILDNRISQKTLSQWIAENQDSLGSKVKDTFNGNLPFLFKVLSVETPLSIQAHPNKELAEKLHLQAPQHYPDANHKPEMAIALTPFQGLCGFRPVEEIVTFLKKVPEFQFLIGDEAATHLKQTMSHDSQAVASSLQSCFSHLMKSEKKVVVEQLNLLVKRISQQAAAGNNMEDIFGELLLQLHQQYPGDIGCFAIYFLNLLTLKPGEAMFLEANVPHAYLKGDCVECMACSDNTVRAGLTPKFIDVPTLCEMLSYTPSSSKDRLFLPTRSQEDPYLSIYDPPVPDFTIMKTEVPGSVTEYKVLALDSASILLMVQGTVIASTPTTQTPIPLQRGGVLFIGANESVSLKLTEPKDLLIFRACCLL
The experiment in a line: MPI enzyme activity inhibition – biochemical, fluorescence intensity, coupled assay, primary screen (AID 1209).

Assay [10] deals with Induced myeloid leukemia cell differentiation protein Mcl-1 (Homo sapiens, UniProt Q07820). It counts as functional.
In assay [11] the target is Polyadenylate-binding protein 1 (Homo sapiens, UniProt P11940). The experiment in a line: blockers of PABP interaction with poly(A) – biochemical, fluorescence polarization, […] (AID 2014).
In a further assay the test system is Vero. The experiment in a line: viability of Vero cells under compound – cytotoxicity control for flavivirus capping enzyme inhibitors (AID 588742). It counts as functional. Conditions: Chlorocebus sabaeus.
A further assay concerns the target Genome polyprotein (dengue virus type 2, UniProt P29990). The assay can be described thus: flavivirus cap methylation enzyme inhibition – biochemical, confirmation dose response, primary screen (AID 588689). It counts as functional.
In assay [12] the target is T3, Long-chain-fatty-acid--AMP ligase FadD28 (Mycobacterium tuberculosis, UniProt P9WQ59).
T3 sequence (P9WQ59 whole entry): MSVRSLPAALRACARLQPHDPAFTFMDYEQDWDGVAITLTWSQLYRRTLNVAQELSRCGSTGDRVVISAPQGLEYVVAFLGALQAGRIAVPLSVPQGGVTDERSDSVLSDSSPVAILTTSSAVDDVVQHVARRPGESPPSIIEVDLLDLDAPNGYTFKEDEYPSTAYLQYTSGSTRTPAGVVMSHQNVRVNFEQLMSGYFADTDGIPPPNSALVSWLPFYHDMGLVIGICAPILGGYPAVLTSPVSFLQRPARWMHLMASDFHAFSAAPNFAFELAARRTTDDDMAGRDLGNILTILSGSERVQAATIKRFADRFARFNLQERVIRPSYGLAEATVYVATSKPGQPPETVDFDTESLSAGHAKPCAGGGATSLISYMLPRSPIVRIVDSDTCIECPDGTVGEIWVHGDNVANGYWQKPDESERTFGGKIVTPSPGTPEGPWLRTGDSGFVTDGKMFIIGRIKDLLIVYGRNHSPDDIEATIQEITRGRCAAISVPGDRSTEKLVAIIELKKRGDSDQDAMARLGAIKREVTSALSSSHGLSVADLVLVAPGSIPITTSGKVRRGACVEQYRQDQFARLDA
The assay can be described thus: Fluorescence polarization aasay to screen for inhibitors that compete for the binding of FadD28 to a bisubstrate Measured in Biochemical System Using Plate Reader - 2147-01_Inhibitor_Dose_CherryPick_Activity. It counts as functional, Mycobacterium tuberculosis H37Rv.

The target of a further assay is Protein Tat (Human immunodeficiency virus type 1 group M subtype B (isolate HXB2)(HIV-1), UniProt P04608). It counts as functional.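 Further: tat binding to TAR RNA read out by fluorescence polarization.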
A short description of assay [13]: viability loss in THP-1 monocytes – THP-1 cells, cytotoxicity control for Vif-APOBEC3G degradation inhibitor project, dose response (AID 1117359). In kind it is functional. Conditions: THP-1.
The nature of assay [14]: viability loss in Vero cells – cytotoxicity control for Vif-APOBEC3G degradation inhibitor project, dose response (AID 1117358). In kind it is functional. Conditions: Vero.
In assay [15] the target is T4, E3 ubiquitin-protein ligase XIAP (Homo sapiens, UniProt P98170). The experiment in a line: Counter Screen using XIAP-Bir3 for Chemical Antagonists of Bir1/2 domains of IAP-family anti-apoptotic proteins. [Related pubchem assays (depositor defined):AID1018, AID1449, AID1514, AID1638, AID1749, AID1750, AID488957, AID488963]. A general note: A counterscreen serves to expose hits that act by an unwanted route or on another target.

Assay [16] has as its target T4, E3 ubiquitin-protein ligase XIAP. The assay can be described thus: small molecules displacing peptide from XIAP – biochemical, IAP family, fluorescence polarization (AID 1018). It counts as functional.
The test system of the next assay is H9c2. The assay can be described thus: cells. In kind it is functional, cell-based. Conditions: Rattus norvegicus, H9c2, Myocardium.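 Further: confirmatory concentration-response retest of ultra-high-throughput screening hits for modulation of myocardial damage; cell death induced by hydrogen peroxide oxidative stress; compound pretreatment for 60 min then peroxide exposure for 2 h; potency is for protecting the cells against peroxide damage rather than for killing them.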

Structures are written as SMILES. The source made the active and inactive calls.

T4 sequence (P98170 whole entry): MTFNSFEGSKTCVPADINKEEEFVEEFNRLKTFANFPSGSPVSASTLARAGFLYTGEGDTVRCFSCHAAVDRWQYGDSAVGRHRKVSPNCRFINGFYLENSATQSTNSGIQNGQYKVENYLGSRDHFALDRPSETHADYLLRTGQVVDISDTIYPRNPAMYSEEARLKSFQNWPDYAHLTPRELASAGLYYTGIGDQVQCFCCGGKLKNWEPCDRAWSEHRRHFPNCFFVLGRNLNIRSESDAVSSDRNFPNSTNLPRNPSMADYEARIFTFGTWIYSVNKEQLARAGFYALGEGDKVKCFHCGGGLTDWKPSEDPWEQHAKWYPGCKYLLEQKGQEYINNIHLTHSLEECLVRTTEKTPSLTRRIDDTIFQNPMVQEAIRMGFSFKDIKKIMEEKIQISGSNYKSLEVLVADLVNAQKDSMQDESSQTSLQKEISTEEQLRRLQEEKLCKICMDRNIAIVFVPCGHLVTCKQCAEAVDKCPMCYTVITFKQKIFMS
Neuropeptide Y receptor type 2, sequence (P49146 whole entry): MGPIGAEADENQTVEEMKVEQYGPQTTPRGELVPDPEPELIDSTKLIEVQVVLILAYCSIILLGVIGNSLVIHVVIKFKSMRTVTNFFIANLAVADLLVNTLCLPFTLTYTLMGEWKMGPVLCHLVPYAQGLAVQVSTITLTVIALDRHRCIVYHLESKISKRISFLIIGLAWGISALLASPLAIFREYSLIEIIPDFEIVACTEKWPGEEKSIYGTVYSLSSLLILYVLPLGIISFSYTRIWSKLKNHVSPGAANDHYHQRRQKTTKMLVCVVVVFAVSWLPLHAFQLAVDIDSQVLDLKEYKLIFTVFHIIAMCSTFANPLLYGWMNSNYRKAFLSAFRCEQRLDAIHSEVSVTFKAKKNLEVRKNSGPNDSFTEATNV
Induced myeloid leukemia cell differentiation protein Mcl-1, sequence (Q07820 whole entry): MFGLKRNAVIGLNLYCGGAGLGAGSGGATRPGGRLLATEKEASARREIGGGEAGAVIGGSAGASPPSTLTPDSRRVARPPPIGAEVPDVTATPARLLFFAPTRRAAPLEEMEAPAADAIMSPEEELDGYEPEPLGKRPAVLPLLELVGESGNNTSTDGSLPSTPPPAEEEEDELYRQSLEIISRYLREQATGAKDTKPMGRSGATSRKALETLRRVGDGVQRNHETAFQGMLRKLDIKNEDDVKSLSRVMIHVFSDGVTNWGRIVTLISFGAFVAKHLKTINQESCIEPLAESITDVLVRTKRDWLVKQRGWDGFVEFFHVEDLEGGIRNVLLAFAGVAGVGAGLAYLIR
Lysosomal acid glucosylceramidase, sequence (P04062 whole entry): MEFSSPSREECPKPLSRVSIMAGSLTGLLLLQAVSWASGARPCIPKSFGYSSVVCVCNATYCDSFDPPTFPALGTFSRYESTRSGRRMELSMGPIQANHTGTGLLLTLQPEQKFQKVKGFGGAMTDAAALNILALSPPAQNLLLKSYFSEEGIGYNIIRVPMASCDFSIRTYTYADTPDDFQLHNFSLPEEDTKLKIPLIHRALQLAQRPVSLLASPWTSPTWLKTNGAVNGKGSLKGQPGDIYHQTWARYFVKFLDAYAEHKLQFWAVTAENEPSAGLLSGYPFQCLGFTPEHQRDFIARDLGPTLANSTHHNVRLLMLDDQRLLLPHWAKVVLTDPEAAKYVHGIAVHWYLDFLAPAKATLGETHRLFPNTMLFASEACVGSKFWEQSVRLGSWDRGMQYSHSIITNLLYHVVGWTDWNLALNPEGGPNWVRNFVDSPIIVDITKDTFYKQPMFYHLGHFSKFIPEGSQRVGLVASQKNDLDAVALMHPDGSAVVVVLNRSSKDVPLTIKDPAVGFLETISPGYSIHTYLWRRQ
Neuropeptide Y receptor type 1, sequence (P25929 whole entry): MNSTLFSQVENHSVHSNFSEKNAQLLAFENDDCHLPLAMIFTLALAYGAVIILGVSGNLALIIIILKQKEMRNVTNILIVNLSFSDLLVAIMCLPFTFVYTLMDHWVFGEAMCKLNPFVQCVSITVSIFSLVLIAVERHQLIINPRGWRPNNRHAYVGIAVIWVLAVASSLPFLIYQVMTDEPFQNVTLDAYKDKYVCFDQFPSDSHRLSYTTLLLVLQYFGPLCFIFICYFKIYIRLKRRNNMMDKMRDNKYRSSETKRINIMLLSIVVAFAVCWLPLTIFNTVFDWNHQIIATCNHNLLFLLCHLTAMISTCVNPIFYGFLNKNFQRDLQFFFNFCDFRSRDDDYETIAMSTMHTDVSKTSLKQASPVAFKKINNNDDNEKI
Luciferin 4-monooxygenase, sequence (P08659 whole entry): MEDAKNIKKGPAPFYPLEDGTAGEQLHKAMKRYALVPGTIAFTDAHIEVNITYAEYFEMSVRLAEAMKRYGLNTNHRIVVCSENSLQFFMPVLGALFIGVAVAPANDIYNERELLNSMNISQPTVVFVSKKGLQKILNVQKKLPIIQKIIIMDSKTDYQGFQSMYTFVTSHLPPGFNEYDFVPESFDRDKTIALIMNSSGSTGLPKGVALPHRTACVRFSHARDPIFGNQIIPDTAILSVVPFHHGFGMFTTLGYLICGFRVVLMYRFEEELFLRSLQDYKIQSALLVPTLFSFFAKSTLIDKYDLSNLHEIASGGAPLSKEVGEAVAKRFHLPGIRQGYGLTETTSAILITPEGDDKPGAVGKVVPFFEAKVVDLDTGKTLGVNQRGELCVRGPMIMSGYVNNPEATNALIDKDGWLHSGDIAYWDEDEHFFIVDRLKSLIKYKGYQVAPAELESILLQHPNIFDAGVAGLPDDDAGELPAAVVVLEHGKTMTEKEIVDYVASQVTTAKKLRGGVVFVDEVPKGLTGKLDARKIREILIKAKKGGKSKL
Protein Tat, sequence (P04608 whole entry): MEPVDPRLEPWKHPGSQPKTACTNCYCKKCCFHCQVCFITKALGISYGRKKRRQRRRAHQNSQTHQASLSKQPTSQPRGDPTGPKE
Polyadenylate-binding protein 1, sequence (P11940 whole entry): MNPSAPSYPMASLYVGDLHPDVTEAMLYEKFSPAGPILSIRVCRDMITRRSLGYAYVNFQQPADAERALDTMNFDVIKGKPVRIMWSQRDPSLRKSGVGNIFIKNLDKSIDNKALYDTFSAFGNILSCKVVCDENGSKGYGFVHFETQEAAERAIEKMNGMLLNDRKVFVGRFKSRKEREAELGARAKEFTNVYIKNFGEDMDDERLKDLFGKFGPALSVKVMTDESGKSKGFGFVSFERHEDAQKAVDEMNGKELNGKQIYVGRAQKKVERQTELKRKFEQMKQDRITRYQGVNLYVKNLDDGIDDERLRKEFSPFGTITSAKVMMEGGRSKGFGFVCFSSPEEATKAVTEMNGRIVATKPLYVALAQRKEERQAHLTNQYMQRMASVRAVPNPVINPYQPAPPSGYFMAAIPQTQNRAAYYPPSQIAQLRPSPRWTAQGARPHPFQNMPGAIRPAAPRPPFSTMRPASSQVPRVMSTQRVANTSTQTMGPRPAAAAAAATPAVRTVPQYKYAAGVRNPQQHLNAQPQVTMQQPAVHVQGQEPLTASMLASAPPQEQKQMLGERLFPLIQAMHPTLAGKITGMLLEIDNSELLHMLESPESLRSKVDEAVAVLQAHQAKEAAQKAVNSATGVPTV
Genome polyprotein, sequence (P29990 2492-3391 limits assumed): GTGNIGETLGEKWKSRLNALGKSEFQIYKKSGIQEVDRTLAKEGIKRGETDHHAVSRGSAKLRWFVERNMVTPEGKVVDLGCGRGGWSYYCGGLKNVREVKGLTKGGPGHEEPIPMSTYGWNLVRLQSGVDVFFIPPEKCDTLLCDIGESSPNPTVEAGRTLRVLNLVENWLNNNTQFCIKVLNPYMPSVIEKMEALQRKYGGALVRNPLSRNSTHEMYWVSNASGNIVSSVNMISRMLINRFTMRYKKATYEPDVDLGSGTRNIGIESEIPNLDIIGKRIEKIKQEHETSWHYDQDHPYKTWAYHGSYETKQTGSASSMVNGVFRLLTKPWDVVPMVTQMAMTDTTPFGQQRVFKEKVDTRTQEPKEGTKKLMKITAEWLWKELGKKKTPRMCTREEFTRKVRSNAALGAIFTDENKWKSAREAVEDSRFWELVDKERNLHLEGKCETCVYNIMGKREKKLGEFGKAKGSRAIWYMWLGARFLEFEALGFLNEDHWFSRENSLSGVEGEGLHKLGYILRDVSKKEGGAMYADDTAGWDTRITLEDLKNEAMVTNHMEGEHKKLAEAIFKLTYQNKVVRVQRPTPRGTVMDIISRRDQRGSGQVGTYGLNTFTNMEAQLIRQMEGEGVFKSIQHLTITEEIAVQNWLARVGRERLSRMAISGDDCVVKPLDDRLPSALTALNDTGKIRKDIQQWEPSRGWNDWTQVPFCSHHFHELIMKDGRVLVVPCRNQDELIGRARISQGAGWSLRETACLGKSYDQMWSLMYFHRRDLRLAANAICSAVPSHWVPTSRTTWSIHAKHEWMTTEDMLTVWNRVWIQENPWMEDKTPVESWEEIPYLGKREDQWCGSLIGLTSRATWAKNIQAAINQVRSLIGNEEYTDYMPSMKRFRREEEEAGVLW

One may read the IC50 as the concentration that inhibits the measured activity by half. Regarding `O=C(CSc1nc2ccccc2o1)c1ccc2c(c1)OCCO2`, the half-inhibitory concentration (IC50) is 11.3 µM (not active) in [1], 18.3 µM (not active) in [2] and > 100 µM (inactive) on Protein skinhead-1.
Broadly, the EC50 is the concentration giving half of the maximal effect. Turning to `CN(CC(=O)Nc1ccc(F)c(F)c1)S(=O)(=O)c1cccc2nsnc12`, in assay [3], the EC50 is > 50 µM (not active).
For orientation: CC50 means the concentration that lowers cell viability or growth by half. A word on the AC50: it is the concentration giving half of the maximal activity seen. As for `C/N=c1\scc(-c2cccs2)n1/N=C/c1ccc(O)c(O)c1O`, the EC50 in [4] is > 150 µM (inactive); in assay [6] it was > 38 µM (not active); in assay [7], 0.636 µM (active); in [8] it was 1.53 µM (active). Also, the half-maximal inhibitory concentration (IC50) in assay [5] is 59.2 µM (active); in [9] it was 15.5 µM (active); in assay [10], 7.08 µM (active); in assay [11], > 100 µM (inactive); at Genome polyprotein, 70.7 µM (active); at Protein Tat, 98.1 µM (inconclusive). The CC50 is 13 µM (active) in the assay on Vero, 12.1 µM (active) in [13] and > 40 µM (active) in [14]. Also, in assay [12], the AC50 was > 100 µM (inactive).
Regarding `Cc1ccc2cc3c(NC(=O)c4cccnc4)nn(C)c3nc2c1`, the IC50 is > 100 µM (inactive) in assay [15], > 100 µM (not active) in [16], > 79 µM (inactive) in the assay on H9c2 and > 100 µM (inactive) on Protein skinhead-1.
